Assay results: US4988691A (priority 1989, dated 1991)
Counter-ions that a name gives are not always drawn. Like-named read-outs stand apart in the source and are kept apart here.

Columns and labels:
[1] = molecular target: T1, contracturing effect of acetylcholine (Cavia porcellus, UniProt H0W1Z3); test: anticholinergic activity in vitro (contracturing effect of acetylcholine on isolated guinea pig small intestine); set-up: species or system Guinea pigs
T1 construct: Segments measuring 5-6 cm were drawn form the end portion of the small intestine; from tissue; host or cells: guinea pig terminal small intestine (ileum)

[2] = molecular target: T2, contracturing effect of histamine (Cavia porcellus, UniProt P31389); test: antihistaminic activity in vitro (contracturing effect of histamine on isolated guinea pig small intestine); set-up: species or system Guinea pigs; settings: vs histamine; guinea pig small intestine; 37° C.; test compounds 10^-5 M; read-out: Antihistaminic activity (pA2) (converted)
T2 construct: Segments measuring 5-6 cm were drawn form the end portion of the small intestine; from tissue; host or cells: guinea pig terminal small intestine (ileum)

[3] = tested on: rat sciatic nerve; test: local anaesthetic activity on sciatic nerve preparation in vitro; settings: rat, sciatic nerve, 8 min; read-out: ED50 (C.L. 95%)
[4] = tested on: guinea pig back; test: local anaesthetic activity in the test of the guinea pig back in vivo (intracutaneous infiltration)
Experimental: (b) Evaluation of the local anaesthetic activity in the test of the guinea pig back in vivo in comparison with lidocaine.
The local anaesthetic activity was evaluated by the method of intracutaneous infiltration in the guinea pig back as described by Bulbring E. and Wajda I. [(J. Pharmacol. Exp. Ther. 85, 78, (1945)].
Female guinea pigs weighin 400-500 g were treated intracutaneously in 4 points of their back.
At 5 minutes intervals, it was determined the reactivity of the animal to pain in each area by considering the number of responses to 6 pain stimulations.
Compounds of formula I, compound R and lidocaine, dissolved at different concentration in physiological solution adjusting the pH at 7 by addition of NaHCO3 were injected under the skin at the constant volume of 0.25 ml.
The distribution of the treatments in the 4 areas of the back was carried out according to the scheme of the Latin square. Experiments were carried out in blind.
As an example, the ED50 values for compound No. 8, compound R and lidocaine determined at 5, 15 and 30 minutes after the administration are reported in table 4.

[5] = tested on: receptors for benzodiazepins; test: displacement of 3H-flunitrazepam from benzodiazepine receptors, rat cerebral cortex membranes; type: binding; settings: 3H-flunitrazepam 1nM
[6] = tested on: Ca^++ receptors; test: displacement of 3H-nitrendipine from Ca++ receptors, rat brain membranes; type: binding; settings: 3H-nitrendipine 1nM
[7] = tested on: 5-HT1 receptors; test: affinity for 5-HT1 receptors (3H serotonin binding), rat cortex membranes; settings: 3H-serotonin 5 nM; rat frontal cortex membranes
[8] = molecular target: 5-HT2 receptors (Rattus norvegicus, UniProt P14842); test: affinity for 5-HT2 receptors (3H-spiroperidol binding), rat cortex membranes; settings: 3H-spiroperidol […]; rat frontal cortex membranes
[9] = molecular target: T3, 5-HT3 receptors (Oryctolagus cuniculus, UniProt A0A5F9C9J3); test: anti-5-HT3 activity in vitro on the isolated vagus nerve of rabbit
T3 construct: from tissue; host or cells: isolated rabbit vagus nerve
T3 sequence (A0A5F9C9J3 1-494): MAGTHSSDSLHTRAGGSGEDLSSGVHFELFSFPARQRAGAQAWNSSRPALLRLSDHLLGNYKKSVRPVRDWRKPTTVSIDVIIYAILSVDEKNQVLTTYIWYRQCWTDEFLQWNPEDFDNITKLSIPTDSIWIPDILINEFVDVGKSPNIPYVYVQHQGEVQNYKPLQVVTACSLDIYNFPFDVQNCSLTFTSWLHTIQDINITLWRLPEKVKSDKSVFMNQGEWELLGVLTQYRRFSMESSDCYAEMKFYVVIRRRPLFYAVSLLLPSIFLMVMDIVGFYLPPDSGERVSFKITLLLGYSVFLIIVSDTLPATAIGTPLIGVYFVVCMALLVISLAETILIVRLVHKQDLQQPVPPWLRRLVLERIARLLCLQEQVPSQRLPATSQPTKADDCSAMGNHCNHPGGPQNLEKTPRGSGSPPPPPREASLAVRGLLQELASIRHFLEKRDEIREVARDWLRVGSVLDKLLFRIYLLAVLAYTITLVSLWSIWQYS
Experimental: (b) Evaluation of the anti-5-HT3 activity in vitro on the vagus nerve of rabbit. Male albino New Zeland rabbits weighing about 3 kg were sacrified by an air injection in the edge auriculaers vein. The two vagus nerves, drawn as soon as possible, were placed in a bath of Locke solution having the following composition: 154 mM NaCl; 5.5 mM KCl; 2.2 mM CaCl2; 5 mM glucose; 8 mM TRIS, the pH being adjusted at 7.6 by addition of HCl. Nerves were stripped of their epineurium and transferred into a device described by Kosterlitz H. W. et al., [J. Physiol., 183, IP-3P, (1966)] consisting of four compartments separated by means of 3 elastic membranes having a little hole through which the nerve passes. The glucose concentration perfusing a portion of the nerve was 315 mM. The overmaximal electric stimulation by a single shock at 10 seconds intervals elicited a potential visualized on a storage oscilloscope. In the potential the complexes due to the excitation of fibers A, B and C were distinguished. A serotonin solution applied to the nerve causes the dose-dependent fall of the potential for fibers C only. The non variation of the A-B complex when applying serotonin and the test compounds of formula I indicates on one hand the specific action of the substances for receptors relating to fibers C only (5-HT3 receptors) and on the other hand the absence of local-anaesthetic activity. Tests were performed at room temperature (24°-25° C.). The optimum maximum reduction of the potential of fibers C by serotonin resulted to be 44%. This reduction was adopted as maximum effect (100%). For each nerve a dose-response curve was constructed with cumulative doses of serotonin. After having washed serotonin and recovered the initial potential, the nerve was balanced with a fixed concentration of the compound of formula I for 60 minutes and successively the dose-response curve to serotonin was repeated, the compound of formula I being always present in the same concentration. After having applied a serotonin concentration sufficient to produce the highest effect, the preparation was washed and thereafter it was balanced again for 60 minutes with a solution of the same compound of formula I having a higher concentration. The procedure was then repeated. For each dose of the compound of formula I the test was repeated more than 5 times. The negative […] logarithm of the molar concentration of the compound of formula I which gives a 50% reduction of the effect of the agonist substance (pA2) was calculated. In table 7, the pA2 values of some compounds of formula I are reported.

[10] = tested on: reperfusion induced arrythmias in rat; test: inhibition of reperfusion induced arrythmias in rat; type: in vivo; settings: for % VF / % dead: 10 treated rats; for incidence dead / incidence VF: number of 10 treated rats
[11] = tested on: norepinephrine induced arrythmias in rat; test: inhibition of norepinephrine induced arrythmias in rat; type: in vivo; settings: for ED50: Rattus norvegicus, 50% reduction of arrythmia duration
Experimental: Male rats, weighing 300-400 g, narcotized with urethan (1.5 g/kg, i.p.) were used; one little probe was implanted into the jugular vein and another into the femoral vein for administering norepinephrine and the test substance respectively. The EGC was recorded in II derivation and from it the instantaneous heart rate was derived. Furthermore, the EGC wave was monitored on oscilloscope and made audible by mean of a loudspeaker. Norepinephrine (75 μg/kg/min. for 15 seconds, 7-8 μg/animal) was administered by means of a Braun perfusion apparatus. The dose of administered norepinephrine was established in preliminary tests so as to cause an arrythmia of a duration equal to or higher than 10 seconds. The arising time of the heart arrythmia starting from the beginning of the norepinephrine perfusion and the duration of the arrythmic phase were recorded. Tests of arrythmia duration for each animal were performed; thereafter the compounds of formula I and the compound R were administered intravenously or per os 2 minutes or 1 hour respectively before a fourth norepinephrine infusion. The activity of test compounds was evaluated as increasing percentage in the time of the arising of arrythmia as well as of the inhibition (duration of the arrythmic phase). For each dose at least 5 tests were performed. In table 9 we report as an example the ED50 values defined as 50% reduction of the duration of arrythmias after the administration of both compound No. 8 and compound R either intravenously (i.v.) or per os (p.o.).

T2 sequence (P31389 whole entry): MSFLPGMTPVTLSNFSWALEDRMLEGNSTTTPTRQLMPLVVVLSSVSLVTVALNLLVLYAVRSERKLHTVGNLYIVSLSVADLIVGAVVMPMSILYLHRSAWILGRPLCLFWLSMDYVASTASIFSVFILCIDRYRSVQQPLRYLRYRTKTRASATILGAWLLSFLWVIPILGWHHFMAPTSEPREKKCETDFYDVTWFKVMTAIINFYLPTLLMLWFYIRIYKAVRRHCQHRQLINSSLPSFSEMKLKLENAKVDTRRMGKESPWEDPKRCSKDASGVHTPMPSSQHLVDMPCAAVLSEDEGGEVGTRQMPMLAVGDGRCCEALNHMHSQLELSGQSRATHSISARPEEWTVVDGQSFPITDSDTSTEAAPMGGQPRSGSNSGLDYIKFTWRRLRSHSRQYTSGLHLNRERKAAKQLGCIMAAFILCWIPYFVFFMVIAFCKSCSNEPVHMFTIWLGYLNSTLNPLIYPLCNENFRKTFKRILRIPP
5-HT2 receptors, sequence (P14842 whole entry): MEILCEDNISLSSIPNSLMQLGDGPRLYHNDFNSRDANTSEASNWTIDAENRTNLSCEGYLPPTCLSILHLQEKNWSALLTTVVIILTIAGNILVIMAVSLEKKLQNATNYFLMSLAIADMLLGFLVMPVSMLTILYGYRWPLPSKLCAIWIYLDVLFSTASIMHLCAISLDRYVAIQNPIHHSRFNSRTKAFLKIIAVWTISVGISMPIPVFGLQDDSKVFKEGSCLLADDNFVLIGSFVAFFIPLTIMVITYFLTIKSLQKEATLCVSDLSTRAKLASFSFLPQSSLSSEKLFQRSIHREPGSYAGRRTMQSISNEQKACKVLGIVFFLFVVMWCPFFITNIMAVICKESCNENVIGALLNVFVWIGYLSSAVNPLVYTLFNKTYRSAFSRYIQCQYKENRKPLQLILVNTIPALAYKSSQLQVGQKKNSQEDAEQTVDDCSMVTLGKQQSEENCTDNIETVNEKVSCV
T1 sequence (H0W1Z3 1-590): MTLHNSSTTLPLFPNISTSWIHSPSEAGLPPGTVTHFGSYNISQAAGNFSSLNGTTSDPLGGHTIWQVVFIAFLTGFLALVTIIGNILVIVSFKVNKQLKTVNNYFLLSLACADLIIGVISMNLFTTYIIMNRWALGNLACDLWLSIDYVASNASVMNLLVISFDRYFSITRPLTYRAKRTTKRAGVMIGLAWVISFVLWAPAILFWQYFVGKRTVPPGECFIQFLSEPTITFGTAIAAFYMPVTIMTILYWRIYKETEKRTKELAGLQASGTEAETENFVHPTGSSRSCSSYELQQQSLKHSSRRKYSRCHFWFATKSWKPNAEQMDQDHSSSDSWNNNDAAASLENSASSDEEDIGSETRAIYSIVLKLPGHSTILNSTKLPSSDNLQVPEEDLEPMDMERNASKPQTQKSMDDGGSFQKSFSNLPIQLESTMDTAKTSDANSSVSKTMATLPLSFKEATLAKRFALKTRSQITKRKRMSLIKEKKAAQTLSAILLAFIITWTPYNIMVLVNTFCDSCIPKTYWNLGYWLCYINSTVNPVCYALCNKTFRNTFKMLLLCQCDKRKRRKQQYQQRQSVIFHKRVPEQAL

Structure (SMILES): Cc1cc(C(=O)O[C@H]2C[C@H]3CC[C@@H](C2)N3C)no1 [Compound 8, 5-methylisoxazole-3-carboxylic acid 3-(endo-8-methyl-8-azabicyclo[3,2,1]octyl) ester hydrochloride]
- Kb [1]: 6.31 µM
- Kb [2]: 6.31 µM
- IC50 [3]: > 15 mM
- ED50 (C.L. 95%), 5 min. ([4]; guinea pig back, cutaneous anaesthesia, 5 min. after administration, 0.25 ml): 28.4 (25.5-31.8) mM
- ED50 (C.L. 95%), 15 min. ([4]; guinea pig back, cutaneous anaesthesia, 15 min. after administration, 0.25 ml): 32.8 (30.5-35.2) mM
- ED50 (C.L. 95%), 30 min. ([4]; guinea pig back, cutaneous anaesthesia, 30 min. after administration, 0.25 ml): 41.2 (38.8-43.7) mM
- local anaesthetic activity, guinea pig back (in words) ([4]; guinea pig, in vivo): undoubtedly less active as local anaesthetic than compound R and lidocaine
- Displacement activity at benzodiazepine receptors [5]: inactive
- Displacement activity at receptors of Ca++ [6]: inactive
- Affinity (IC50) to 5-HT1 receptors [7]: inactive
- Affinity (IC50) to 5-HT2 receptors [8]: inactive
- Kb [9]: 0.631 nM
- % VF ([10]; 1 mg/kg per os): 20%
- % dead ([10]; 1 mg/kg per os): 10%
- incidence dead ([10]; 1 mg/kg per os): 1
- incidence VF ([10]; 1 mg/kg per os, ** significance < 0.02): 2
- % VF ([10]; 3 mg/kg per os): 0%
- % dead ([10]; 3 mg/kg per os): 0%
- incidence dead ([10]; 3 mg/kg per os): 0
- incidence VF ([10]; 3 mg/kg per os, *** significance < 0.001): 0
- antiarrythmic activity, reperfusion induced arrythmias (in words) ([10]; per os): active in the test of reperfusion-induced arrythmias
- ED50 ([11]; iv, 2 min, i.v., 2 minutes before norepinephrine, read-out: ED50 i.v.): 0.125 mg/kg
- ED50 ([11]; po, 1 hour before norepinephrine, read-out: ED50 p.o.): 0.35 mg/kg
- activity in norepinephrine-induced arrythmia (in words) ([11]; intravenously or per os): much more active than the compound R
